# Assay results from patent US9663473B2 (Actelion Pharmaceuticals Ltd, priority 2013, dated 2017).
# Target: T1, recombinant human ALX receptor (Homo sapiens, UniProt P25090)
# T1 construct: expressed in transfected cells; host or cells: HEK293 (HEK293-hALXR-Gα16)
# T1 sequence (P25090 1-351): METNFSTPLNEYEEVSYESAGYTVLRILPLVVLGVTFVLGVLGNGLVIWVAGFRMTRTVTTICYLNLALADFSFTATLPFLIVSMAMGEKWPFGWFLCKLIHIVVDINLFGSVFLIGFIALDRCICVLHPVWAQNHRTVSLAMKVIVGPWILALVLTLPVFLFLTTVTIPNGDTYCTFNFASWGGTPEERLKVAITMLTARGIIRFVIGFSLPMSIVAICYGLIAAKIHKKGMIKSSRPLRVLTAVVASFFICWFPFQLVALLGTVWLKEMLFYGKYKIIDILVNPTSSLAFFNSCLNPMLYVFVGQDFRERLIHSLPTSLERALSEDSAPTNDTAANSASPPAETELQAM
# Experiment: Intracellular calcium measurements (FLIPR), ALX receptor agonistic activity
# Assay type: cell-based
# Settings: HEK293-hALXR-Gα16 cells, Fluo-4 calcium signal, normalized to WKYMVm 10 nM
# Method in brief: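 HEK293 cells co-expressing human ALX receptor and Gα16 were loaded with 1 μM Fluo-4 AM for 60 min at 37° C., then exposed to serially diluted compounds on FLIPR Tetra. Peak fluorescence above baseline (ex 488/em 540 nm) was normalized to 10 nM WKYMVm as high control.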
row,Compound,EC50
1,"O=C(NC(Cc1ccc(C(F)(F)F)cc1F)c1nc2cc(F)ccc2[nH]1)N[C@H]1CC[C@H](O)CC1 (single isomer, unassigned; ent-1) [Example 363, 1-(1-(5-Fluoro-1H-benzo[d]imidazol-2-yl)-2-(2-fluoro-4-(trifluoromethyl)phenyl)ethyl)-3-(trans-4-hydroxycyclohexyl)urea (ent-1)]",5.6 nM
2,"COc1ccc(CC(NC(=O)N[C@H]2CC[C@H](O)CC2)c2nc3ccccc3[nH]2)c(F)c1F (single isomer, unassigned; ent-1) [Example 365, 1-(1-(1H-Benzo[d]imidazol-2-yl)-2-(2,3-difluoro-4-methoxyphenyl)ethyl)-3-(trans-4-hydroxycyclohexyl)urea (ent-1)]",1.7 nM
3,"COc1cc(F)c(CC(NC(=O)N[C@H]2CC[C@H](O)CC2)c2nc3cc(F)ccc3[nH]2)c(F)c1 (single isomer, unassigned; ent-1) [Example 366, 1-(2-(2,6-Difluoro-4-methoxyphenyl)-1-(5-fluoro-1H-benzo[d]imidazol-2-yl)ethyl)-3-(trans-4-hydroxycyclohexyl)urea (ent-1)]",0.4 nM
4,"CCc1ccc(CC(NC(=O)N[C@H]2CC[C@H](O)CC2)c2nc3cc(F)ccc3[nH]2)cc1 (single isomer, unassigned; ent-1) [Example 368, 1-(2-(4-Ethylphenyl)-1-(5-fluoro-1H-benzo[d]imidazol-2-yl)ethyl)-3-(trans-4-hydroxycyclohexyl)urea (ent-1)]",1.8 nM
5,"COc1ccc(CC(NC(=O)N[C@H]2CC[C@H](O)CC2)c2nc3cc(F)ccc3[nH]2)c(F)c1F (single isomer, unassigned; ent-1) [Example 375, 1-(2-(2,3-Difluoro-4-methoxyphenyl)-1-(5-fluoro-1H-benzo[d]imidazol-2-yl)ethyl)-3-(trans-4-hydroxycyclohexyl)urea (ent-1)]",0.4 nM
6,"CC(F)(F)c1ccc(CC(NC(=O)N[C@H]2CC[C@H](O)CC2)c2nc3ccccc3[nH]2)cc1 (single isomer, unassigned; ent-1) [Example 394, 1-(1-(1H-Benzo[d]imidazol-2-yl)-2-(4-(1,1-difluoroethyl)phenyl)ethyl)-3-(trans-4-hydroxycyclohexyl)urea (ent-1)]",4.7 nM
7,"O=C(NC(Cc1ccc(C(F)(F)F)cc1F)c1nc2ccccc2[nH]1)N[C@H]1CC[C@H](O)CC1 (single isomer, unassigned; ent-1) [Example 399, 1-(1-(1H-Benzo[d]imidazol-2-yl)-2-(2-fluoro-4-(trifluoromethyl)phenyl)ethyl)-3-(trans-4-hydroxycyclohexyl)urea (ent-1)]",1700 nM
8,"COc1ccc(CC(NC(=O)N[C@H]2CC[C@H](O)CC2)c2nc3cc(Br)c(Br)cc3[nH]2)cc1 (single isomer, unassigned; ent-1) [Example 425, 1-(1-(5,6-dibromo-1H-benzo[d]imidazol-2-yl)-2-(4-methoxyphenyl)ethyl)-3-(trans-4-hydroxycyclohexyl)urea (ent-1)]",119 nM
9,"O=C(NC(Cc1ccc(Br)c(F)c1)c1nc2ccccc2[nH]1)N[C@H]1CC[C@H](O)CC1 (single isomer, unassigned; ent-2) [Example 262, 1-(1-(1H-Benzo[d]imidazol-2-yl)-2-(4-bromo-3-fluorophenyl)ethyl)-3-(trans-4-hydroxycyclohexyl)urea (ent-2)]",11 nM
10,"COc1ccc(CC(NC(=O)N[C@H]2CC[C@H](O)CC2)c2nc3ccccc3[nH]2)c(F)c1 (single isomer, unassigned; ent-2) [Example 310, 1-(1-(1H-Benzo[d]imidazol-2-yl)-2-(2-fluoro-4-methoxyphenyl)ethyl)-3-(trans-4-hydroxycyclohexyl)urea (ent-2)]",3.3 nM
11,"CC1(O)CCC(NC(=O)NC(Cc2ccc(Br)c(F)c2)c2nc3ccccc3[nH]2)CC1 (single isomer, unassigned; ent-2) [Example 317, 1-(1-(1H-Benzo[d]imidazol-2-yl)-2-(4-bromo-3-fluorophenyl)ethyl)-3-(trans-4-hydroxy-4-methylcyclohexyl)urea (ent-2)]",5.7 nM
12,"O=C(NC(Cc1ccc(C(F)(F)F)cc1F)c1nc2ccccc2[nH]1)N[C@H]1CC[C@H](O)CC1 (single isomer, unassigned; ent-2) [Example 359, 1-(1-(1H-Benzo[d]imidazol-2-yl)-2-(2-fluoro-4-(trifluoromethyl)phenyl)ethyl)-3-(trans-4-hydroxycyclohexyl)urea (ent-2)]",19 nM
13,"O=C(NC(Cc1ccc(C(F)F)cc1)c1nc2ccccc2[nH]1)N[C@H]1CC[C@H](O)CC1 (single isomer, unassigned; ent-2) [Example 369, 1-(1-(1H-Benzo[d]imidazol-2-yl)-2-(4-(difluoromethyl)phenyl)ethyl)-3-(trans-4-hydroxycyclohexyl)urea (ent-2)]",7.2 nM
14,"COc1ccc(CC(NC(=O)N[C@H]2CC[C@H](O)CC2)c2nc3ccc(F)cc3[nH]2)cc1F (single isomer, unassigned; ent-2) [Example 371, 1-(1-(6-Fluoro-1H-benzo[d]imidazol-2-yl)-2-(3-fluoro-4-methoxyphenyl)ethyl)-3-(trans-4-hydroxycyclohexyl)urea (ent-2)]",250 nM
15,"CCc1ccc(CC(NC(=O)N[C@H]2CC[C@H](O)CC2)c2nc3cc(F)ccc3[nH]2)cc1 (single isomer, unassigned; ent-2) [Example 374, 1-(2-(4-Ethylphenyl)-1-(5-fluoro-1H-benzo[d]imidazol-2-yl)ethyl)-3-(trans-4-hydroxycyclohexyl)urea (ent-2)]",597 nM
16,"COc1ccc(CC(NC(=O)N[C@H]2CC[C@H](O)CC2)c2nc3cc(F)ccc3[nH]2)c(F)c1F (single isomer, unassigned; ent-2) [Example 376, 1-(2-(2,3-Difluoro-4-methoxyphenyl)-1-(5-fluoro-1H-benzo[d]imidazol-2-yl)ethyl)-3-(trans-4-hydroxycyclohexyl)urea (ent-2)]",67 nM

# Other lines, results leading:
row,EC50,Compound
1,1 nM,"COc1cc(F)c(CC(NC(=O)NC23CCC(O)(CC2)CC3)c2nc3ccccc3[nH]2)cc1F (single isomer, unassigned; ent-1) [Example 357, 1-(1-(1H-Benzo[d]imidazol-2-yl)-2-(2,5-difluoro-4-methoxyphenyl)ethyl)-3-(4-hydroxybicyclo[2.2.2]octan-1-yl)urea (ent-1)]"
2,3.9 nM,"O=C(NC(Cc1ccc(C(F)(F)F)cc1F)c1nc2cc(F)ccc2[nH]1)NC12CCC(O)(CC1)CC2 (single isomer, unassigned; ent-1) [Example 361, 1-(1-(5-Fluoro-1H-benzo[d]imidazol-2-yl)-2-(2-fluoro-4-(trifluoromethyl)phenyl)ethyl)-3-(4-hydroxybicyclo[2.2.2]octan-1-yl)urea (ent-1)]"
3,27 nM,"O=C(NC(Cc1ccc(C(F)(F)F)cc1F)c1nc2ccccc2[nH]1)NC12CCC(O)(CC1)CC2 (single isomer, unassigned; ent-1) [Example 362, 1-(1-(1H-Benzo[d]imidazol-2-yl)-2-(2-fluoro-4-(trifluoromethyl)phenyl)ethyl)-3-(4-hydroxybicyclo[2.2.2]octan-1-yl)urea (ent-1)]"
4,0.1 nM,"COc1cc(F)c(CC(NC(=O)NC23CCC(O)(CC2)CC3)c2nc3ccc(F)cc3[nH]2)c(F)c1 (single isomer, unassigned; ent-1) [Example 367, 1-(2-(2,6-Difluoro-4-methoxyphenyl)-1-(6-fluoro-1H-benzo[d]imidazol-2-yl)ethyl)-3-(4-hydroxybicyclo[2.2.2]octan-1-yl)urea (ent-1)]"
5,2.6 nM,"O=C(NC(Cc1ccc(Br)c(F)c1)c1nc2ccc(F)cc2[nH]1)NC12CCC(O)(CC1)CC2 (single isomer, unassigned; ent-1) [Example 400, 1-(2-(4-bromo-3-fluorophenyl)-1-(6-fluoro-1H-benzo[d]imidazol-2-yl)ethyl)-3-(4-hydroxybicyclo[2.2.2]octan-1-yl)urea (ent-1)]"
6,717 nM,"COc1ccc(CC(NC(=O)N[C@H]2CC[C@H](O)CC2)c2nc3ccc(F)cc3[nH]2)c(F)c1 (single isomer, unassigned; ent-2) [Example 370, 1-(1-(6-Fluoro-1H-benzo[d]imidazol-2-yl)-2-(2-fluoro-4-methoxyphenyl)ethyl)-3-(trans-4-hydroxycyclohexyl)urea (ent-2)]"
7,769 nM,"COc1ccc(CC(NC(=O)NC23CCC(O)(CC2)CC3)c2nc3ccc(F)cc3[nH]2)cc1F (single isomer, unassigned; ent-2) [Example 372, 1-(1-(6-Fluoro-1H-benzo[d]imidazol-2-yl)-2-(3-fluoro-4-methoxyphenyl)ethyl)-3-(4-hydroxybicyclo[2.2.2]octan-1-yl)urea (ent-2)]"
8,107 nM,"COc1cc(F)c(CC(NC(=O)NC23CCC(O)(CC2)CC3)c2nc3ccc(F)cc3[nH]2)c(F)c1 (single isomer, unassigned; ent-2) [Example 373, 1-(2-(2,6-Difluoro-4-methoxyphenyl)-1-(6-fluoro-1H-benzo[d]imidazol-2-yl)ethyl)-3-(4-hydroxybicyclo[2.2.2]octan-1-yl)urea (ent-2)]"
9,2620 nM,"COc1ccc(CC(NC(=O)NC23CCC(O)(CC2)CC3)c2nc3ccc(F)cc3[nH]2)c(F)c1 (single isomer, unassigned; ent-2) [Example 398, 1-(1-(6-Fluoro-1H-benzo[d]imidazol-2-yl)-2-(2-fluoro-4-methoxyphenyl)ethyl)-3-(4-hydroxybicyclo[2.2.2]octan-1-yl)urea (ent-2)]"
